The values that follow come from US20230190756A1, “PHARMACEUTICAL FORMULATION FOR THE ELIMINATION OF CAUSATIVE AGENTS OF HERPESVIRAL INFECTIONS FROM THE TISSUES OF A MACROORGANISM” (priority 2017, published 2023).

The subject of test [1] is HDAC. The conditions noted are these: cited from earlier work.
For test [2], the system named is EBV lymphoma cells. The conditions noted are these: cited from earlier work.
Test [3] in a line: Biological activity of fully substituted derivatives (test not specified). From the text:
Also, peak (2) was not divided into several small fragments, nor was it possible to separate it using different conditions of thin layer chromatography, which indicates the stable nature of the formed supramolecular structure from different derivatives.

The subject of test [4] is p300-induced p65 acetylation. The conditions noted are these: in vitro and in vivo; cited from earlier work.
The test system of test [5] is EBV infection. The conditions noted are these: cited from earlier work.

trichostatin A [TCA]: in test [1], the IC50% result is recorded as “in the nanomolar region”.

As to `Nc1ccccc1NC(=O)c1ccc(CNC(=O)OCc2cccnc2)cc1` [MS275], in test [2], the “effective concentrations for sensitizing to ganciclovir” value is recorded as “effective at nanomolar concentrations”.

Take “octaacetyl epigalocatechin [fully acetylated epigalocatechin]”: in test [3], the biological activity result is “did not exhibit biological activity”.

For the compound “octaacetyl glycyrrhizin [fully acetylated glycyrrhizin]”, in test [3], the biological activity result is recorded as “did not exhibit biological activity”.

Turning to “octasuccinyl epigalocatechin [Fully succinylated epigalocatechin]”, in test [3], the biological activity entry is on record as “did not exhibit biological activity”.

As for “octasuccinyl glycyrrhizin [Fully succinylated glycyrrhizin]”, the biological activity entry in test [3] is reported as “did not exhibit biological activity”.

On to `O=C(O[C@@H]1Cc2c(O)cc(O)cc2O[C@@H]1c1cc(O)c(O)c(O)c1)c1cc(O)c(O)c(O)c1` [No 13 (Table 1), epigallocatechin gallate], for which, in test [4], the “p300-induced p65 acetylation” value is listed as “cancels”. Also, the “expression of cytokines induced by EBV infection” value in test [5] is “completely blocks”.
